Experimental data: US9688625B2, “Amorphous form of a thiocolchicine derivative” (priority 2014, dated 2017)

Tests used:
Assay type in all cases: physicochemical
[1] = Solubility (comparison of solid forms); conditions: compared with other crystalline forms
[2] = Chemical stability on storage, analyses by HPLC; conditions: for time for which chemically stable (none impurity departed from its initial value): HPLC; for variation in the chemical composition: after one month at 40±2° C./75±5% relative humidity
Method: The analyses were performed by HPLC.

[3] = Physical stability on storage (features of FIG. 1-4 maintained); conditions: 40±2° C./75±5 relative humidity
Method: The amorphous form of compound (I) has also been found physically stable at 25±2° C./60±5% relative humidity for at least three years and at 40±2° C./75±5 relative humidity for at least 6 months, as it maintained the characteristics features reported in FIG. 1-4.

Compound | solubility in water [1] | time for which chemically stable (none impurity departed from its initial value) ([2]; 25±2° C./60±5% relative humidity) | time for which chemically stable (none impurity departed from its initial value) ([2]; 40±2° C./75±5% relative humidity) | time for which physically stable (maintained features of FIG. 1-4) [3] | variation in the chemical composition [2]
COc1cc2c(c(OC)c1OC)-c1ccc(SC)c(=O)cc1[C@@H](NC(=O)CCNC(=O)N[C@H]1CCc3cc(OC)c(OC)c(OC)c3-c3ccc(SC)c(=O)cc31)CC2 [amorphous form of compound (I), IDN 5404] | more soluble in water than other crystalline forms | at least three | at least 6 moths | at least 6 months | –
COc1cc2c(c(OC)c1OC)-c1ccc(SC)c(=O)cc1[C@@H](NC(=O)CCNC(=O)N[C@H]1CCc3cc(OC)c(OC)c(OC)c3-c3ccc(SC)c(=O)cc31)CC2 (single isomer, unassigned) [crystalline IDN 5404 obtained in Example 3] [reference compound] | – | – | – | – | 4.1%
COc1cc2c(c(OC)c1OC)-c1ccc(SC)c(=O)cc1[C@@H](NC(=O)CCNC(=O)N[C@H]1CCc3cc(OC)c(OC)c(OC)c3-c3ccc(SC)c(=O)cc31)CC2 (single isomer, unassigned) [crystalline IDN 5404 obtained in Example 2] [reference compound] | – | – | – | – | 7%
